# Patent US5851782A, “Inhibitors of ceramidase” (Duke University, priority 1996, dated 1998)
# Columns and labels:
# [1] = test system: HL-60 human myelocytic leukemia cells; test: HL-60 cell proliferation (cell counting); type: cell-based; conditions: for effect on cell growth: HL-60 cells, 5 μM, time course
# Procedure: (§1) Proliferation and cell cycle studies. HL-60 human myelocytic leukemia cells (obtained from the American Type Culture Collection) were grown in RPMI 1640 medium containing 10 fetal calf serum at 37° C. in 5% CO2 incubator. For proliferation and cell cycle studies, cells were resuspended at a density of 2×10^5 cells/ml in serum-free media containing insulin (5 mg/liter) and transferrin (5 mg/liter) and sodium selenite (5 μg/liter) for 2-4 h. Cells were then treated with the indicated compounds. Ethanol concentration was always maintained at less than 0.1%. Cell proliferation was determined by counting cells using a hemacytometer, cell viability was evaluated by trypan blue dye exclusion, and cell cycle analysis was determined by propidium iodide flow cytometry as described (Chao et al, J. Biol. Chem. 267:23459 (1992)).
# In structure-function analysis of ceramide-mediated growth suppression using amides of phenylaminoalcohols, D- and L-erythro-MAPP were employed. In these studies, HL-60 cells were treated with 5 μM of either D-e-MAPP or L-e-MAPP, and growth was determined at the indicated time points (FIG. 2A).
# (§2) Studies were conducted examining the uptake and metabolism of D- and L-MAPP. In the first set of studies, the effect of duration of exposure of HL-60 cells to D-e-MAPP on the bioactivity of the molecule was determined. D-e-MAPP added to cells could be washed off by repeated sedimentation and washing of cells. Thus, after five cycles of washing, less than 10% of D-MAPP remained associated with the cell pellet-compared to unwashed cells (FIG. 5A).
# [2] = test system: HL-60 cells; test: Cell cycle analysis by propidium iodide flow cytometry; type: cell-based, human; conditions: HL-60, 5 μM, 48 h
# Procedure: as §1
# [3] = test system: ceramide-activated protein phosphatase (CAPP); test: CAPP serine/threonine phosphatase activity in vitro; type: biochemical; conditions: myelin basic protein phosphorylated by protein kinase A as substrate
# [4] = test system: HL-60 cells; test: Uptake of tritium-labeled compounds by HL-60 cells; type: cell-based, human; conditions: for partitioning of label taken up into lipid organic phase: HL-60, 0-72 h, 5 to 30 μM; for uptake by cells: 24 hr
# Procedure: Uptake and metabolism studies. HL-60 cells were grown as described and treated with ^3 H-labeled compounds at concentrations ranging from 0 to 10 μM. At the indicated time points, cell pellets were separated from media and ^3 H radioactivity was counted.
# as §2
# Next, the uptake of tritium-labeled D- and L-e-MAPP was examined. To this end, D- and L-e-MAPP labeled in the N-myristoyl group were synthesized and used for uptake and metabolism studies. […] At 24 hr, approximately 20% of D-e-MAPP (5 μM) and 26% of L-e-MAPP (5 μM) were taken up by cells.
# The partitioning of the label taken up by cells into the lipid organic phase was evaluated next.
# [5] = biological target: T1, Glucosylceramide synthase (Homo sapiens, UniProt Q16739); test: Glucocerebroside (glucosylceramide) synthase assay in vitro; type: biochemical; conditions: 20 μM; for Glucosylceramide synthase activity: Control 1.009 ± 0.0424; for inhibition of cerebroside synthase activity: Table I
# T1 sequence (Q16739 1-394): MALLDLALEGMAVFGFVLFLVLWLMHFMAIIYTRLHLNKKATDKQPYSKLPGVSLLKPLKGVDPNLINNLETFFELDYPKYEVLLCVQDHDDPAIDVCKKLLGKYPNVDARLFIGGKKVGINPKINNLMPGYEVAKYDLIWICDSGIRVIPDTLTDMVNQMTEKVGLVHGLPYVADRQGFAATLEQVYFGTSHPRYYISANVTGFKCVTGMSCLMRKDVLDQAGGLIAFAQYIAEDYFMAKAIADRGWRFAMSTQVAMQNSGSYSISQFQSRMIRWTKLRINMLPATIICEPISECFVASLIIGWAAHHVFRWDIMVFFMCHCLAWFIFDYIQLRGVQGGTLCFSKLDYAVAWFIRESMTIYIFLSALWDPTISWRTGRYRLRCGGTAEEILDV
# Procedure: Glucocerebrosidase and glucocerebroside synthase assays. In vitro assays for gluccerebrosidase and for cerebroside synthase were performed as described (Abe et al, J. Biochem. (Tokyo) 11:191 (1992)).
# (§3) In addition to ceramidase, inhibition of cerebroside synthase and sphingomyelin synthase or stimulation of sphingomyelinase or cerebrosidase could result in elevations in endogenous ceramide levels. Therefore, the effects of D- and L-e-MAPP were examined on these enzyme activities in vitro and in cells.
# [6] = test system: endogenous levels of sphingomyelin; test: Endogenous sphingomyelin levels in cells; type: cell-based
# Text: as §3
# [7] = biological target: T2, acidic sphingomyelinase (Homo sapiens, UniProt P17405); test: Acidic sphingomyelinase activity in vitro; type: biochemical
# T2 sequence (P17405 47-631): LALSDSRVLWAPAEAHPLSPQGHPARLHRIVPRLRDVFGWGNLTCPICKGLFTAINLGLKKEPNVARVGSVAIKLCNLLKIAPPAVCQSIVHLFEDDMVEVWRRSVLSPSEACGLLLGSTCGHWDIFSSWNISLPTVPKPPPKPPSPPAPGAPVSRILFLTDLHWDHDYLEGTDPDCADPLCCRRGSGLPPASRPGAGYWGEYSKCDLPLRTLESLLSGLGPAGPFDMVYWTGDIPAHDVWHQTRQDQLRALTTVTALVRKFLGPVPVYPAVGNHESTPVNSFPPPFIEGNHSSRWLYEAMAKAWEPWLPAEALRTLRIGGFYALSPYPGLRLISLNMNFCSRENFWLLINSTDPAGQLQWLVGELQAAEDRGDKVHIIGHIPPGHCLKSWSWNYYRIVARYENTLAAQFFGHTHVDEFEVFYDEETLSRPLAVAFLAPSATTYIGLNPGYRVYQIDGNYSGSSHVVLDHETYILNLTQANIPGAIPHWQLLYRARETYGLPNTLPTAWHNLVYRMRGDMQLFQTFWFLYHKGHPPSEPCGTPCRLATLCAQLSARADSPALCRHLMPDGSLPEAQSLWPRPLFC
# Text: as §3
SMILES,"effect on cell growth, exposure for only 15 min ([1]; HL-60, 5 μM, back-extracted with 5 washes after 15 min)","effect on cell growth, continuous exposure ([1]; HL-60, 5 μM, compared to vehicle-treated cells)",effect on cell growth [1],population of cells in G2/M phase ([2]; from 10% untreated),population of cells in S phase ([2]; from 30% untreated),population of cells in G0/G1 phase ([2]; from 60% untreated),activation of CAPP in vitro [3],partitioning of label taken up into lipid organic phase [4],"uptake by cells ([4]; HL-60, 5 μM)","compound remaining associated with the cell pellet after washing ([4]; HL-60, 5 μM, five cycles of washing, compared to unwashed cells)",Glucosylceramide synthase activity [5],inhibition of cerebroside synthase activity [5],effect on endogenous levels of sphingomyelin [6],effect on activity of acidic sphingomyelinase [7],effect on cell cycle progression [2]
"CCCCCCCCCCCCCC(=O)N[C@H](C)[C@@H](O)c1ccccc1 [D-e-MAPP, D-erythro-2-(N-myristolyamino)-1-phenyl-1-propanol]",did not affect cell growth,dramatic growth inhibition,time dependent suppression of growth,3%,24%,73%,neither D-e-MAPP nor L-e-MAPP activated CAPP,majority of the label in D-e-MAPP or L-e-MAPP remained associated with the organic phase,approximately 20%,less than 10%,0.946 ± 0.0265 nmol/h/mg protein,Neither D- nor L-e-MAPP caused inhibiton of cerebroside synthase activity,neither D- nor L-e-MAPP modulated the endogenous levels of sphingomyelin,neither D- nor L-e-MAPP modulated the activity of neutral or acidic sphingomyelinases,–
"CCCCCCCCCCCCCC(=O)N[C@@H](C)[C@H](O)c1ccccc1 [L-e-MAPP, L-erythro-2-(N-myristolyamino)-1-phenyl-1-propanol]",–,–,largely inactive,–,–,–,neither D-e-MAPP nor L-e-MAPP activated CAPP,majority of the label in D-e-MAPP or L-e-MAPP remained associated with the organic phase,~26%,–,1.009 ± 0.0383 nmol/h/mg protein,Neither D- nor L-e-MAPP caused inhibiton of cerebroside synthase activity,neither D- nor L-e-MAPP modulated the endogenous levels of sphingomyelin,neither D- nor L-e-MAPP modulated the activity of neutral or acidic sphingomyelinases,largely without effect
